Measured values: patent publication US20180161314A1, “Methods for Treating Hyperuricemia and Related Diseases” (Ardea Biosciences, Inc., priority 2010, published 2018)
Read-outs that look alike come from different tables or passages of the source.

What was measured:
[1] = tested on: hyperuricemic subjects with symptomatic gout; experiment: Pilot study of drug 1 versus placebo and open-label allopurinol in hyperuricemic subjects with symptomatic gout (Examples 1, 2, 20); assay type: in vivo, human
Procedure: Study Objectives • To compare the proportion of subjects whose sUA level is <6.0 mg/dL following 2 weeks of continuous treatment with drug 1 compared to allopurinol and placebo. • To evaluate the percent reduction from baseline in sUA levels following 2 weeks of continuous treatment with drug 1 in combination with allopurinol. • To evaluate the proportion of subjects whose sUA levels are <6.0 mg/dL, <5.0 mg/dL and <4.0 mg/dL at each visit. • To evaluate the absolute and percent reduction from baseline in sUA levels at each visit. • To evaluate the maximum percent reduction in sUA levels from baseline during the entire treatment period. • To evaluate percent change in 24-hour urine uric acid level from baseline to Day 15. • To evaluate the safety and tolerability of drug 1 in subjects with gout. • To evaluate the pharmacokinetics, safety and tolerability of drug 1 in combination with allopurinol in subjects with gout.
A randomized, double-blind, placebo-controlled, dose titration, safety and pharmacodynamics pilot study, in approximately 26 hyperuricemic subjects with symptomatic gout enrolled at 2-3 investigational sites in N America, of: • drug 1 versus placebo and open-label allopurinol (Cohort 1); and • drug 1 in combination with allopurinol versus continued allopurinol alone (Cohort 2)
Subjects are randomized 7 days prior to Day 1 in a double-blind fashion to receive drug 1, drug 1 matching placebo, or open-label allopurinol (Cohort 1) or drug 1 or drug 1 matching placebo in combination with allopurinol (Cohort 2).
To reduce the incidence of gout flares, colchicine 0.6 mg qd is administered to all subjects starting 14 days prior to the Baseline (Day 1) visit. Subjects continue colchicine administration throughout the Treatment Period, discontinuing at the End of Study visit (one week after the last dose of study medication).
Cohort 1 approx 20 subjects randomized in 2:1:1 ratio treatment groups—drug 1:placebo:allopurinol.
Subjects randomized to double-blind treatment: • approx 10 subjects randomized to receive drug 1 200 mg qd (4 drug 1 50 mg capsules/day) for one week, followed by drug 1 400 mg qd (8 drug 1 50 mg capsules/day) for one week. • 5 subjects randomized to receive drug 1 matching placebo qd for 2 weeks (week 1-4 drug 1 matching placebo capsules; week 2-8 drug 1 matching placebo capsules)
Subjects randomized to open-label treatment: • 5 subjects randomized to receive allopurinol 300 mg tablets qd for 2 weeks Cohort 2 approx 6 subjects randomized in 5:1 ratio treatment groups—drug+allopurinol:placebo+allopurinol
For Cohorts 1 and 2, subjects randomized to double-blind treatment take drug 1 or drug 1 matching placebo every 24 hours (±1 h) (morning dose) for a period of 2 weeks. For Cohort 1, subjects randomized to open-label treatment take allopurinol every 24 hours (±1 h) (morning dose) for a period of 2 weeks.
Subjects are requested to then drink approximately 240 mL of water 1-2 hours after dosing.
1. Male or post-menopausal or surgically sterile female. 2. 18-75 years of age. 3. Hyperuricemic, defined as: Cohort 1: Screening serum uric acid is ≥8 mg/dL Cohort 2: Screening serum uric acid is ≥10 mg/dL 4. Subject meets one or more of the 1977 American Rheumatism Association (ARA) criteria for the diagnosis of acute arthritis of primary gout. 5. Subject is willing and able to give informed consent and adhere to visit/protocol schedules.
Blood samples (4.5 mL) are collected and sUA levels determined at Screening (repeated as necessary prior to Day 1), Baseline (Day 1) (1 hour and 8 hours post-dose), Day 8 (trough, 1 hour and 8 hours post-dose), Day 9 (24 hours after Day 8 dose), and Day 14 (trough and 8 hours post-dose), Day 15 and End of Study. An additional sUA level is obtained on Day 7 for Cohort 2 subjects prior to the first dose of allopurinol.
Primary pharmacodynamics parameter is the proportion of subjects with serum uric acid <6.0 mg/dL following 2 weeks of treatment. […]

[2] = tested on: gout patients with hyperuricemia; assay type: in vivo; details: for Mean absolute sUA reduction / Mean sUA % change / Mean sUA level: ± SE; for % Response rate for sUA falling below 4 mg/dL / % Response rate for sUA falling below 5 mg/dL / % Response rate for sUA falling below 6 mg/dL: allopurinol 300 mg
Procedure: Study Objectives • To measure the effect of drug 1, alone and in combination with allopurinol, on serum urate concentration. • To evaluate the safety and tolerability of drug 1 in combination with allopurinol.
The study is open-label in gout patients with hyperuricemia, involving 2 panels of ˜10-12 patients per panel. The panels may be enrolled simultaneously.
Panel 1 receives a once-daily dose of allopurinol 300 mg alone for 7 days and for an additional 7 days in combination with a once-daily dose of drug 1 400 mg. Patients then receive 7 days of a once-daily dose of drug 1 400 mg alone. Panel 2 follows the same regimen as panel 1, at doses of allopurinol 300 mg and drug 1 600 mg.
• Day −10 to Day 28: colchicine prophylaxis; or • Day −7 to Day 28: colchicine prophylaxis (for patients not washing out from ULT) • Days 1-7: allopurinol 300 mg qd • Days 8-14: drug 1 400 mg qd+allopurinol 300 mg qd • Days 15-21: drug 1 400 mg qd
• Day −10 to Day 28: colchicine prophylaxis; or • Day −7 to Day 28: colchicine prophylaxis (for patients not washing out from ULT) • Days 1-7: allopurinol 300 mg qd • Days 8-14: drug 1 600 mg qd+allopurinol 300 mg qd • Days 15-21: drug 1 600 mg qd
Gout patients on a urate lowering therapy (ULT), have previously taken a ULT or who have never taken a ULT are eligible to participate. Screening procedures to determine patient eligibility are performed within approximately 14 days of the first dose of study drug (Day 1). Subjects currently on ULT wash-out for at least 10 days before Day 1, and begin colchicine (Colcry® 0.6 mg qd, URL Pharma) as prophylaxis for gout flares at the beginning of the wash-out period. Subjects not on ULT begin colchicine administration at least 7 days prior to Day 1. Patients intolerant of colchicine during the screening period are considered screen failures and not enrolled. Prophylactic administration of colchicine continues for 7 days after the last dose of study medication.
Eligible patients report to the study center early morning on Days −1, 7, 14, and 21 (or the afternoon/evening the day before). Serial blood samples are collected on Days −1, 7, 14, and 21. Study medication is administered to each patient and taken orally every morning with approximately 240 mL of water, at approximately the same time of the morning every day, and approximately 30 minutes after finishing a full breakfast (approximately 650 Kcal and 35% fat); the breakfast is standardized on Days −1 to 21.
Inclusion Criteria • Patient is male or post-menopausal or surgically sterile female. • Patient is 18-80 years of age. • Patient meets one or more criteria for the diagnosis of gout as per the American Rheumatism Association (ARA) Criteria for the Classification of Acute Arthritis of Primary Gout (Appendix B). • Patient sUA≥8 mg/dL at screening. • Patient willing and able to give informed consent and adhere to visit/protocol schedules • No clinically relevant abnormalities in blood pressure (BP), heart rate (HR), body temperature and respiratory rate as per Investigator's judgment.
Subject urate serum levels are recorded, and any safety concerns assessed (by adverse events, clinical laboratory test results, vital signs, 12-lead ECGs, and physical examinations). […] Urate serum concentrations are evaluated for treatment- and/or time-dependent changes relative to baseline (Day −1), and may be expressed both in standard units (mg/dL) and as changes from baseline (e.g., percent change, absolute change, maximal change, and time or day of maximal change).
Drug 1 was tested according to the protocol described in Example 21.
Serum urate levels were measured and absolute and % reduction levels from baseline calculated, for Allopurinol monotherapy, Drug 1 monotherapy and Allopurinol plus Drug 1 combination.

[3] = Drug 1 400 mg panel: allopurinol 300 mg qd days 1-7, combination days 8-14, drug 1 400 mg qd alone days 15-21
[4] = Drug 1 600 mg panel: allopurinol 300 mg qd days 1-7, combination days 8-14, drug 1 600 mg qd alone days 15-21

SMILES: Oc1ncnc2[nH]ncc12 [Allopurinol, 1H-pyrazolo[3,4-d]pyrimidin-4(2H)-one, reference compound]
- Responders Day 14 (those with sUA <6 mg/dL) ([1]; Cohort 1, Day 14, responders/subjects, drug 1 200 mg qd 1 week then 400 mg qd 1 week, allopurinol 300 mg qd 2 weeks): 5/5
- Adverse event ([1]; one subject on allopurinol 300 mg qd): hyperaldosteronemia
- Mean absolute sUA reduction [2, 3]: -3.1 ± 0.28 mg/dL
- Mean sUA % change [2, 3]: −32.2 ± 2.1%
- Mean sUA level [2, 3]: 6.5 ± 0.16 mg/dL
- % Response rate for sUA falling below 4 mg/dL ([2]; Drug 1 400 mg panel): 0%
- % Response rate for sUA falling below 5 mg/dL ([2]; Drug 1 400 mg panel): 0%
- % Response rate for sUA falling below 6 mg/dL ([2]; Drug 1 400 mg panel): 10%
- Mean absolute sUA reduction [2, 4]: -2.6 ± 0.26 mg/dL
- Mean sUA % change [2, 4]: −28.7 ± 2.4%
- Mean sUA level [2, 4]: 6.3 ± 0.31 mg/dL
- % Response rate for sUA falling below 4 mg/dL ([2]; Drug 1 600 mg panel): 0%
- % Response rate for sUA falling below 5 mg/dL ([2]; Drug 1 600 mg panel): 10%
- % Response rate for sUA falling below 6 mg/dL ([2]; Drug 1 600 mg panel): 30%
